test: logP determination by HPLC (EEC-Directive 79/831 Annex V. A8); format: physicochemical; settings: gradient method, acetonitrile/0.1% aqueous phosphoric acid

| Structure (SMILES) | logP | chromatographic logP |
| --- | --- | --- |
| CON=C(C(=O)N(C)Sc1ccc(OC)cc1)c1ccccc1COc1ccccc1C [Example 11] | 4.98 | – |
| CCCCN(CCCC)SN(C)C(=O)C(=NOC)c1ccccc1COc1ccccc1C [Example 9] | 6.83 | – |
| CON=C(C(=O)N(C)SC(F)(Cl)Cl)c1ccccc1Oc1ccccc1 [Example 47] | 4.75 | – |
| CON=C(C(=O)N(C)SC(F)(F)F)c1ccccc1COc1cccc(-c2ccccc2)c1 [Example 66] | 5.36 | – |
| CON=C(C(=O)N(C)Sc1ccc(Cl)c(C(F)(F)F)c1)c1ccccc1COc1ccccc1C [Example 25] | 5.8 | – |
| CON=C(C(=O)N(C)SC(C)(F)F)c1ccccc1COc1ccccc1C [Example 57] | 4.62 | – |
| CON=C(C(=O)N(C)Sc1ccccc1)c1ccccc1CON=C(C)c1cccc(C(F)(F)F)c1 [Example 72] | 5.48 | – |
| CON=C(C(=O)N(SC(F)(F)F)C1CC1)c1ccccc1COc1ccccc1C [Example 61] | 5.17 | – |
| CCSC(=O)N(C)C(=O)C(=NOC)c1ccccc1COc1ccccc1C [Example 27] | 4.91 | – |
| CON=C(C(=O)N(C)Sc1ccc(Cl)cc1)c1ccccc1COc1ccccc1C [Example 20] | 5.53 | – |
| CON=C(C(=O)N(C)SC(F)(Cl)Cl)c1ccccc1COc1cccc(-c2ccccc2)c1 [Example 65] | 5.77 | – |
| CON=C(C(=O)NC#N)c1ccccc1COc1ccccc1C [Example 4] | 3.34 | – |
| CON=C(C(=O)N(C)SC(F)(F)F)c1ccccc1COc1cc(C)ccc1C [Example 68] | 5.25 | – |
| CON=C(C(=O)N(C)SC(Cl)(Cl)Cl)c1ccccc1COc1ccccc1C [Example 6] | 5.56 | – |
| CON=C(C(=O)N(C)C(=O)OC)c1ccccc1COc1ccccc1C [Example 33] | 4.11 | – |
| CON=C(C(=O)N(C)C(=O)N1CCOCC1)c1ccccc1COc1ccccc1C [Example 36] | 3.32 | – |
| CON=C(C(=O)N(C)C(=O)N(SC(F)(Cl)Cl)c1ccc(Cl)cc1)c1ccccc1COc1ccccc1C [Example 34] | 6.21 | – |
| CCOC(=O)N(SC(F)(Cl)Cl)C(=O)C(=NOC)c1ccccc1COc1ccccc1C [Example 30] | 5.35 | – |
| CON=C(C(=O)N(C)SN(C)C(=O)C(=NOC)c1ccccc1COc1ccccc1C)c1ccccc1COc1ccccc1C [Example 45] | – | 6.1 |

| Structure (SMILES) | logP | chromatographic logP |
| --- | --- | --- |
| CON=C(C(=O)N(SC(F)(Cl)Cl)C1CC1)c1ccccc1COc1ccccc1C [Example 60] | 5.58 | – |
| CON=C(C(=O)N(C)Sc1cccc(C(F)(F)F)c1)c1ccccc1COc1ccccc1C [Example 22] | 5.5 | – |
| CON=C(C(=O)N(C)SC(F)(Cl)Cl)c1ccccc1COc1cc(F)ccc1F [Example 69] | 4.86 | – |
| CON=C(C(=O)N(C)SC(F)(F)F)c1ccccc1COc1ccccc1C [Example 56] | 4.93 | – |
| CCOCN(C)C(=O)C(=NOC)c1ccccc1COc1ccccc1C [Example 19] | 4.02 | – |
| CON=C(C(=O)N(C)Sc1ccc(F)cc1)c1ccccc1COc1ccccc1C [Example 7] | 5.11 | – |
| CON=C(C(=O)N(C)SC)c1ccccc1COc1ccccc1C [Example 54] | 4.22 | – |
| CCSCc1ccccc1OCc1ccccc1C(=NOC)C(=O)N(C)SC(F)(Cl)Cl [Example 58] | 5.59 | – |
| CON=C(C(=O)N(C)C(=O)N(C)C)c1ccccc1COc1ccccc1C [Example 17] | 3.38 | – |
| CON=C(C(=O)N(C)Sc1ccc(OC)cc1)c1ccccc1Oc1ccccc1 [Example 48] | 4.31 | – |
| CON=C(C(=O)NSC(F)(Cl)Cl)c1ccccc1COc1ccccc1C [Example 28] | 4.32 | – |
| CON=C(C(=O)N(C)C(=O)OCCBr)c1ccccc1COc1ccccc1C [Example 37] | 4.6 | – |
| CCOCN(C)C(=O)C(=NOC)c1ccccc1CON=C(C)c1cccc(C(F)(F)F)c1 [Example 39] | 4.58 | – |
| CON=C(C(=O)N(C)SC(F)(Cl)Cl)c1ccccc1COc1ccccc1C [Example 5] | 5.35 | – |
| CCOC(=O)N(C)C(=O)C(=NOC)c1ccccc1Oc1ccccc1 [Example 41] | 3.59 | – |
| CON=C(C(=O)N(SC(F)(Cl)Cl)SC(F)(Cl)Cl)c1ccccc1COc1ccccc1C [Example 51] | 6.61 | – |
| CON=C(C(=O)N(C)C(=O)C(=O)OC)c1ccccc1COc1ccccc1C [Example 26] | 3.96 | – |
| CON=C(C(=O)N(C)Sc1cccc(C(F)(F)F)c1)c1ccccc1CON=C(C)c1cccc(C(F)(F)F)c1 [Example 74] | 5.84 | – |

Further lines, results first:

| logP | chromatographic logP | Structure (SMILES) |
| --- | --- | --- |
| 5.76 | – | CCc1cc(C)cc(Oc2ncnc(Oc3ccccc3C(=NOC)C(=O)N(C)SC(F)(Cl)Cl)c2F)c1 [Example 137] |
| 5.36 | – | CON=C(C(=O)N(C)SC(F)(Cl)Cl)c1ccccc1CON=C(C)c1cccc(F)c1 [Example 83] |
| 5.2 | – | CON=C(C(=O)N(C)SC(F)(Cl)Cl)c1ccccc1Oc1ncnc(Oc2ccccc2OC(F)(F)F)c1F [Example 93] |
| 5.02 | – | CON=C(C(=O)N(C)SC(F)(Cl)Cl)c1ccccc1Oc1ncnc(Oc2ccc(C)cc2)c1F [Example 120] |
| 5.27 | – | CON=C(C(=O)N(C)SC(F)(Cl)Cl)c1ccccc1Oc1ncnc(Oc2cccc3c2OC(C)(C)C3)c1F [Example 96] |
| 5.39 | – | CON=C(C(=O)N(C)SC(F)(F)F)c1ccccc1CON=C(C)c1cccc(Cl)c1 [Example 78] |
| 4.98 | – | CON=C(C(=O)N(C)SC(F)(Cl)Cl)c1ccccc1Oc1ncnc(Oc2cccc(C)c2)c1F [Example 128] |
| 4.28 | – | CON=C(C(=O)N(C)SC(F)(Cl)Cl)c1ccccc1Oc1ncnc(Oc2ccccc2C#N)c1F [Example 119] |
| 4.41 | – | CON=C(C(=O)N(C)SC(F)(Cl)Cl)c1ccccc1OC(=O)c1c(F)cccc1F [Example 144] |
| 4.71 | – | CON=C(C(=O)N(C)SC(F)(Cl)Cl)c1ccccc1Oc1ncnc(Oc2cccc(C)c2[N+](=O)[O-])c1F [Example 113] |
| 5.59 | – | CON=C(C(=O)N(C)SC(F)(Cl)Cl)c1ccccc1Oc1ncnc(Oc2cccc(Cl)c2C)c1F [Example 86] |
| 5.65 | – | CON=C(C(=O)N(C)SC(F)(Cl)Cl)c1ccccc1Oc1ncnc(Oc2ccc(OC(F)(F)F)cc2C)c1F [Example 138] |
| 5.36 | – | CCSCc1ccccc1Oc1ncnc(Oc2ccccc2C(=NOC)C(=O)N(C)SC(F)(Cl)Cl)c1F [Example 95] |
| 4.72 | – | CON=C(C(=O)N(C)SC(F)(Cl)Cl)c1ccccc1Oc1ncnc(Oc2cccc(C=O)c2Cl)c1F [Example 87] |
| 4.97 | – | CON=C(C(=O)N(C)SC(F)(F)F)c1ccccc1CON=C(C)c1cccc(F)c1 [Example 84] |
| 5.03 | – | CON=Cc1ccccc1Oc1ncnc(Oc2ccccc2C(=NOC)C(=O)N(C)SC(F)(Cl)Cl)c1F [Example 140] |
| 5.71 | – | CON=C(C(=O)N(C)SC(F)(Cl)Cl)c1ccccc1Oc1ncnc(Oc2cc(Cl)cc(Cl)c2)c1F [Example 103] |
| 5.08 | – | CON=C(C(=O)N(C)SC(F)(Cl)Cl)c1ccccc1Oc1ncnc(Oc2ccc(OC(F)(F)F)cc2Cl)c1F [Example 99] |
| 5.42 | – | CON=C(C(=O)N(C)SC(F)(Cl)Cl)c1ccccc1Oc1ncnc(Oc2cccc(C(F)(F)F)c2Cl)c1F [Example 126] |
| 4.76 | – | CON=C(C(=O)N(C)SC(F)(Cl)Cl)c1ccccc1Oc1ncnc(Oc2ccccc2)c1F [Example 88] |
| 5.79 | – | CON=C(C(=O)N(C)SC(F)(Cl)Cl)c1ccccc1CON=C(C)c1cccc(Cl)c1 [Example 77] |

| logP | chromatographic logP | Structure (SMILES) |
| --- | --- | --- |
| 5.3 | – | C=CCc1ccccc1Oc1ncnc(Oc2ccccc2C(=NOC)C(=O)N(C)SC(F)(Cl)Cl)c1F [Example 122] |
| 5.88 | – | CON=C(C(=O)N(C)SC(F)(Cl)Cl)c1ccccc1Oc1ncnc(Oc2cc(C)ccc2C(C)C)c1F [Example 124] |
| 3.69 | – | CON=C(C(=O)N(C)SC(F)(Cl)Cl)c1ccccc1OC [Example 146] |
| 5.76 | – | CON=C(C(=O)N(C)SC(F)(Cl)Cl)c1ccccc1Oc1ncnc(Oc2ccc(Cl)cc2Cl)c1F [Example 102] |
| 5.84 | – | CON=C(C(=O)N(C)SC(F)(Cl)Cl)c1ccccc1Oc1ncnc(Oc2cccc(C(C)(C)C)c2)c1F [Example 132] |
| 5.35 | – | CON=C(C(=O)N(C)SC(F)(Cl)Cl)c1ccccc1Oc1ncnc(Oc2ccc(I)cc2)c1F [Example 127] |
| 5.56 | – | CON=C(C(=O)N(C)SC(F)(Cl)Cl)c1ccccc1Oc1ncnc(Oc2ccccc2C(C)C)c1F [Example 123] |
| 3.7 | – | CON=C(C(=O)N(C)SC(=O)OC)c1ccccc1CON=C(C)c1ccc(OC)c(OC)c1 [Example 82] |
| 5.34 | – | CON=C(C(=O)N(C)SC(F)(Cl)Cl)c1ccccc1Oc1ncnc(Oc2cccc(C)c2C)c1F [Example 92] |
| 4.63 | – | CON=C(C(=O)N(C)SC(F)(Cl)Cl)c1ccccc1Oc1ncnc(Oc2ccc(OC)cc2)c1F [Example 108] |
| 5.36 | – | CON=C(C(=O)N(C)SC(F)(F)F)c1ccccc1CON=C(C)c1cccc(C(F)(F)F)c1 [Example 75] |
| 5.86 | – | CCC(C)c1ccccc1Oc1ncnc(Oc2ccccc2C(=NOC)C(=O)N(C)SC(F)(Cl)Cl)c1F (stereo not shown) [Example 134] |
| 4.34 | – | CON=C(C(=O)N(C)SC(F)(Cl)Cl)c1ccccc1Oc1ncnc(Oc2ccc(C#N)cc2)c1F [Example 107] |
| 4.86 | – | CCOc1ccccc1Oc1ncnc(Oc2ccccc2C(=NOC)C(=O)N(C)SC(F)(Cl)Cl)c1F [Example 110] |
| 5.58 | – | CON=C(C(=O)N(C)SC(F)(Cl)Cl)c1ccccc1Oc1ncnc(Oc2ccc(Cl)c(Cl)c2)c1F [Example 115] |
| 5.38 | – | CCc1ccc(Oc2ncnc(Oc3ccccc3C(=NOC)C(=O)N(C)SC(F)(Cl)Cl)c2F)cc1 [Example 131] |
| 4.76 | – | CON=C(C(=O)N(C)SC(F)(Cl)Cl)c1ccccc1Oc1ncnc(Oc2cccc(F)c2)c1F [Example 118] |
| 5.41 | – | CON=C(C(=O)N(C)SC(F)(Cl)Cl)c1ccccc1Oc1ncnc(Oc2ccc(C)cc2C)c1F [Example 90] |
| 5.05 | – | CON=C(C(=O)N(C)SC(F)(Cl)Cl)c1ccccc1Oc1ncnc(Oc2ccccc2C)c1F [Example 89] |
| 5.48 | – | CON=C(C(C)=NOCc1ccccc1C(=NOC)C(=O)N(C)SC(F)(Cl)Cl)c1ccccc1 [Example 143] |
| 4.68 | – | CON=C(C(=O)N(C)SC(F)(Cl)Cl)c1ccccc1Oc1ncnc(Oc2ccc(N)c(Cl)c2Cl)c1F [Example 136] |

Source: US6403600B1, “Methoximinophenylacetic acid amides” (Bayer Aktiengesellschaft, priority 1998, dated 2002)
